Values quoted from earlier work in patent US11219662B2, “Methods for treating hypotension in a patient that has received an ACE inhibitor by administering angiotensin II” (La Jolla Pharma, LLC, priority 2016, dated 2022).

Conditions: no experiment described

| Compound | activity compared with angiotensin II (qualitative background statement) | activity relative to the activity of angiotensin II (of the activity of angiotensin II, background statement) |
| --- | --- | --- |
| CC[C@H](C)[C@H](NC(=O)[C@H](Cc1ccc(O)cc1)NC(=O)[C@@H](N)C(C)C)C(=O)N[C@@H](Cc1cnc[nH]1)C(=O)N1CCC[C@H]1C(=O)N[C@@H](Cc1ccccc1)C(=O)O [Angiotensin IV, Val-Tyr-Ile-His-Pro-Phe] | less activity than angiotensin II |  |
| Arg-Val-Tyr-Ile-His-Pro-Phe (RVYIHPF; printed: Arg-Val-Tyr-Ile-His-Pro-Phe) [Angiotensin III] |  | approximately 40% |
